Experimental data from patent publication US9518974B2, “Sensor system for detecting organophosphorus residues by inducing coagulation of gold nanoparticles” (priority 2014, dated 2016).

Target: EGFP (Aequorea victoria, UniProt P42212, F64L/H231L/S65T)
Assay: Influence of organophosphorus pesticide on activity (fluorescence) of EGFP
Conditions: pesticide 10 ppb to 10 ppm, excitation 480 nm, emission 510 nm, control 10% methanol

Row | Compound | intensity of fluorescence of EGFP
1 | CCOP(=O)(Sc1ccccc1)Sc1ccccc1 [edifenphos] | the same results
2 | CC(C)OP(=O)(OC(C)C)SCc1ccccc1 [iprobenfos] | the same results
